Earlier results as cited in patent US20190209538A1, “Precision Controlled Load and Release Particles for Post-Operative Pain” (LIQUIDIA TECHNOLOGIES, INC., priority 2016, published 2019).

Assays:
[1] = room temperature, aqueous system between pH 7.0 and pH 9.0
[2] = in vivo

Compound | solubility relative to bupivacaine HCl [1] | clearance rate [2] [L/min]
CCCCN1CCCCC1C(=O)Nc1c(C)cccc1C (stereo not shown) [bupivacaine free base, bupivacaine] | less soluble than bupivacaine HCl | 
CCCCN1CCCCC1C(=O)Nc1c(C)cccc1C (stereo not shown) [bupivacaine] |  | 0.58
CCCCN1CCCC[C@H]1C(=O)Nc1c(C)cccc1C [levobupivacaine] |  | 0.32
CCCN1CCCC[C@H]1C(=O)Nc1c(C)cccc1C [ropivacaine] |  | ~0.72
